| Structure (SMILES) | melting point |
| --- | --- |
| CC(=O)c1ccc(OCCCOc2cccc(NC(=O)c3nnn[nH]3)c2C#N)c(CCC(F)(F)F)c1O | 206 to 208 °C |
| CC(C)(C)OC(=O)NCc1ccccc1-c1ccccc1C(=O)O | 136 °C |
| Cc1oc(C2CC2)nc1COc1ccc(CC(OC(C)C)C(=O)O)c2sccc12 (stereo not drawn) | 71 to 72 °C |
| OC1(CNc2c(Br)cnc3ccccc23)CCCCC1 | 130 to 132 °C |
| O=[N+]([O-])c1ccc(C=Cc2nc(Nc3ccccc3)c3ccccc3n2)o1 | 183 °C |
| COc1cc2ncc(C#N)c(Nc3ccc(F)c(Cl)c3)c2cc1NC(=O)C=CCN1C(C)CCCC1C (stereo not drawn) | 120 to 122 °C |
| O=C1CCC(N2C(=O)c3cccc(CNC(=O)c4cnc5ccccc5n4)c3C2=O)C(=O)N1 (stereo not drawn) | > 260 °C |
| CC(C)CCCC(C)NC(=O)Oc1ccc(Oc2ccccc2)cc1Br (stereo not drawn) | 64 to 67 °C |
| CCOC(=O)c1csc(-c2ncccc2O)n1 | 131 to 134 °C |
| COC(=O)CCC(=O)c1cc(C(C)C)c(Oc2nnnn2-c2ccccc2)c(C(C)C)c1 | 122 to 123 °C |
| Cc1ccn(-c2ccc(S(C)(=O)=O)cc2)c1-c1ccc(OC(F)F)cc1 | 98 to 99 °C |
| O=[N+]([O-])C(=Cc1ccco1)C1=NCCN1CC1CCOC1 (stereo not drawn) | 115 to 117 °C |
| CC1CC(=O)NN=C1c1ccc(NCCN)c([N+](=O)[O-])c1 (stereo not drawn) | 162 to 164 °C |
| Cc1ccc(-c2nnc[nH]2)cc1-c1cc2cnc(NC3CCOCC3)nc2n(C)c1=O | 215 to 216 °C |
| COC(=O)C1CCC2C3CCC4CC(OC(C)=O)CCC4(C)C3C(NC3CCCCC3)CC12C (stereo not drawn) | 126 to 128 °C |
| Oc1ccc(CCc2nc(-c3cccs3)c[nH]2)cc1 | 166 to 167 °C |
| Cc1cc(C#N)cc(C(=O)Nc2ccn(C)n2)n1 | 201 °C |
| COc1ccc(CN2CCc3ncccc3C2)cc1OC | 76 to 77 °C |
| Cn1cc(-c2cccc(F)c2)c(C(=O)NCCNC(=O)OC(C)(C)C)n1 | 124 °C |

| Structure (SMILES) | melting point |
| --- | --- |
| O=C1N(Cc2cccc(OCc3ccccc3)c2)c2ccccc2C12COc1cc3c(cc12)CCO3 (stereo not drawn) | 66 to 68 °C |
| Nc1ncc(C#Cc2ccc(Cl)cc2)c(OCCOCCO)n1 | 142 to 143 °C |
| O=c1c(CCCc2ccncc2)cc2cccnc2n1-c1cccnc1 | 178 to 180 °C |
| CCc1cn(C2CC(OC)C(CO)O2)c(=O)[nH]c1=O (stereo not drawn) | 118 to 127 °C |
| Cc1noc(C(C)c2ccc(-c3ccccc3)c(F)c2)n1 (stereo not drawn) | 55 to 56 °C |
| O=C(NCc1ccc2c(c1)-c1[nH]nc(-c3ccsc3)c1C2)c1cccnc1 | 286 °C |
| CCN1C(OC)=NC(C)=NS1(=O)=O | 50 to 53 °C |
| N#Cc1cccc(-c2ccc(-c3cccc(C#N)c3)o2)c1 | 163 to 164 °C |
| CC(C)(C)c1cc(SC(Sc2cc(C(C)(C)C)c(O)c(C(C)(C)C)c2)C2CC=CCC2)cc(C(C)(C)C)c1O (stereo not drawn) | 122 to 125 °C |
| CC(=O)NC[C@H]1CN(c2ccc(N3C=CS(=O)(=O)CC3)c(F)c2)C(=O)O1 | 193 to 194 °C |
| CCOC(=O)c1cnc(-c2ccccc2OC(C)C)[nH]c1=O | 123 to 124 °C |
| CN1CCN(C)c2cccc(Nc3ncc(Cl)c(N[C@@H]4CCCC[C@H]4NS(C)(=O)=O)n3)c2C1=O | 160 °C |
| COCCc1nc2c(N)nc3ccccc3c2n1CCOCCNC(=O)c1ccc(C(=O)NCCOCCn2c(CCOC)nc3c(N)nc4ccccc4c32)cc1 | 229 to 233 °C |
| CC(C)c1cccc(CCC(O)CCCC2CCCCC2)c1NC(=O)CC1c2ccccc2Oc2ccccc21 (stereo not drawn) | 142 to 143 °C |
| CCOc1cc2c(cc1OCC)[C@@H]1CN(C)CC[C@@H]1N=C2c1ccc(NS(=O)(=O)c2ccc(C)cc2)cc1 | 267 to 268 °C |
| CCC(C)S(=O)(=O)NC(=O)Nc1ccc(Cl)cc1 (stereo not drawn) | 172 to 174 °C |
| Cc1c(C)c2c(c3c1NCC3)CC(C)(C)O2 | 107 to 109 °C |
| O=[N+]([O-])c1ccc2c(c1)COC(c1ccccc1F)O2 (stereo not drawn) | 137 to 138 °C |
| C=C1CC2C(CCC3(C)C2CCC3(O)C(=O)COC(C)=O)C2(C)CCC(=O)C=C12 (stereo not drawn) | 194 to 196 °C |

Source: a melting point compilation (Tetko et al.; mined from patent text by program, amines drawn as free bases though some values may be those of a salt)
